Assay results: US20130310407A1, “COMBINATIONS COMPRISING MACITENTAN FOR THE TREATMENT OF GLIOBLASTOMA MULTIFORME” (ACTELION PHARMACEUTICALS LTD., priority 2011, published 2013)

Assays:
[1] = system: phosphorylated AKT and MAPK; experiment: Immunohistochemistry of tumors using antibodies against phosphorylated AKT and MAPK; type: in vivo, mice; settings: tumors of treated animals, Examples 1 and 2 (macitentan) and Example 3 (atrasentan, zibotentan)
Excerpt: Suppression of survival and proliferation pathways sensitizes cells to chemotherapy and could be the reason for the high effectiveness of macitentan in combination with chemotherapy.

[2] = system: LN229 human glioblastoma cells; experiment: LN229 human glioblastoma cells stereotactically injected into nude mice brain: treatment with macitentan and paclitaxel (Example 2); type: in vivo; settings: nude mice with intracerebral LN229, paclitaxel 8.5 mg/kg intraperitoneal weekly, macitentan 10 mg/kg oral daily
Procedure: (§1) Forty-eight (48) female Swiss Nude mice were obtained from Charles River (France). […] Animal experiments were performed according to the European ethical guidelines of animal experimentation.

[3] = system: LN229 human glioblastoma cells; experiment: LN229 human glioblastoma cells stereotactically injected into nude mice brain: treatment with macitentan and temozolomide (Example 1); type: in vivo; settings: nude mice with intracerebral LN229; treatment from two weeks after injection; temozolomide 7.5 mg/kg oral daily one week on/two weeks off; macitentan 10 mg/kg oral daily; day 100
Procedure: as §1
The mice were monitored daily and euthanized when they developed neurologic symptoms or became moribund. Days of survival were recorded and brain tissues were harvested and processed for histologic examinations. The experiment was terminated on day 100.

Compound | reduction of phosphorylated AKT and MAPK in tumors (immunohistochemistry) [1] | survival after 70 days [2] | survival rate after 100 days [3]
CCCCN(CCCC)C(=O)CN1C[C@H](c2ccc3c(c2)OCO3)[C@@H](C(=O)O)[C@@H]1c1ccc(OC)cc1 [Atrasentan, atrasentan] | much less prominent |  | 
CC(=O)O[C@H]1C(=O)[C@@]2(C)[C@H]([C@H](OC(=O)c3ccccc3)[C@]3(O)C[C@H](OC(=O)[C@H](O)[C@@H](NC(=O)c4ccccc4)c4ccccc4)C(C)=C1C3(C)C)[C@]1(OC(C)=O)CO[C@@H]1C[C@@H]2O [PTL, paclitaxel] |  | about 60% | 
Cn1nnc2c(C(N)=O)ncn2c1=O [TMZ, temozolomide] |  |  | about 40%
COc1nc(C)cnc1NS(=O)(=O)c1cccnc1-c1ccc(-c2nnco2)cc1 [Zibotentan, zibotentan] | much less prominent |  | 
CCCNS(=O)(=O)Nc1ncnc(OCCOc2ncc(Br)cn2)c1-c1ccc(Br)cc1 [macitentan] | strong reduction of both proteins | about 60% | about 40%
